Converted amounts (≈) assume the structure as drawn.
Tests used:
Bacillus cereus = test: Antibacterial activity against Bacillus cereus ATCC 10876 incubated for 24 hrs by microdilution method; assay type: functional
Enterococcus faecalis [1] = test: Antibacterial activity against Enterococcus faecalis ATCC 29212 incubated for 24 hrs by microdilution method; assay type: functional
Staphylococcus aureus [2] = test: Antibacterial activity against Staphylococcus aureus ATCC 25923 incubated for 24 hrs by microdilution method; assay type: functional
Proteus mirabilis = test: Antibacterial activity against Proteus mirabilis ATCC 35659 incubated for 24 hrs by microdilution method; assay type: functional
Escherichia coli [3] = test: Antibacterial activity against Escherichia coli ATCC 25922 incubated for 24 hrs by microdilution method; assay type: functional
Pseudomonas aeruginosa [4] = test: Antibacterial activity against Pseudomonas aeruginosa ATCC 27853 incubated for 24 hrs by microdilution method; assay type: functional
Candida albicans = test: Antifungal activity against Candida albicans ATCC 50193 incubated for 24 hrs by microdilution method; assay type: functional
Aspergillus brasiliensis = test: Antifungal activity against Aspergillus brasiliensis ATCC 16404 incubated for 24 hrs by microdilution method; assay type: functional
Escherichia coli [5] = test: Antibacterial activity against Escherichia coli ATCC 25922 incubated for 24 hrs by tube dilution method; assay type: functional
Klebsiella pneumoniae [6] = test: Antibacterial activity against Klebsiella pneumoniae ATCC 15380 incubated for 24 hrs by tube dilution method; assay type: functional
Pseudomonas aeruginosa [7] = test: Antibacterial activity against Pseudomonas aeruginosa ATCC 12454 incubated for 24 hrs by tube dilution method; assay type: functional
Staphylococcus aureus [8] = test: Antibacterial activity against Staphylococcus aureus ATCC 25923 incubated for 24 hrs by tube dilution method; assay type: functional
Streptococcus pyogenes = test: Antibacterial activity against Streptococcus pyogenes ATCC 35552 incubated for 24 hrs by tube dilution method; assay type: functional
Salmonella enterica = test: Antibacterial activity against Salmonella enterica MTCC 3224 incubated overnight by broth dilution technique; assay type: functional, organism-based
Pseudomonas aeruginosa [9] = test: Antibacterial activity against Pseudomonas aeruginosa MTCC 2453 incubated overnight by broth dilution technique; assay type: functional, organism-based
Enterococcus faecalis [10] = test: Antibacterial activity against Enterococcus faecalis MTCC 439 incubated overnight by broth dilution technique; assay type: functional, organism-based
Klebsiella pneumoniae [11] = test: Antibacterial activity against Klebsiella pneumoniae ATCC 700603 incubated overnight by broth dilution technique; assay type: functional, organism-based
Escherichia coli [12] = test: Antibacterial activity against Escherichia coli ATCC 25922 incubated overnight by broth dilution technique; assay type: functional, organism-based
Streptococcus pneumoniae = test: Antibacterial activity against Streptococcus pneumoniae RCMB 010010 by broth dilution method; assay type: functional
Bacillus subtilis = test: Antibacterial activity against Bacillus subtilis RCMB 010067 by broth dilution method; assay type: functional
Staphylococcus aureus [13] = test: Antibacterial activity against Staphylococcus aureus RCMB 010025 by broth dilution method; assay type: functional
Pseudomonas aeruginosa [14] = test: Antibacterial activity against Pseudomonas aeruginosa RCMB 010043 by broth dilution method; assay type: functional
Escherichia coli [15] = test: Antibacterial activity against Escherichia coli RCMB 010052 by broth dilution method; assay type: functional
Klebsiella pneumoniae [16] = test: Antibacterial activity against Klebsiella pneumonia RCMB 010058 by broth dilution method; assay type: functional
Pseudomonas aeruginosa [17] = test: Antibacterial activity against Pseudomonas aeruginosa 12 incubated for 20 hrs by agar dilution method; assay type: functional
Escherichia coli [18] = test: Antibacterial activity against Escherichia coli NIHJ JC2 incubated for 20 hrs by agar dilution method; assay type: functional
Staphylococcus aureus [19] = test: Antibacterial activity against Staphylococcus aureus 209P JC1 incubated for 20 hrs by agar dilution method; assay type: functional

SMILES: CCCCCCCCn1nnc(-c2n[nH]c(=S)n2-c2ccccc2)c1-c1n[nH]c(=S)n1-c1ccccc1
- MIC (Bacillus cereus): 2 µg/mL (≈ 3.76 µM)
- MIC (Enterococcus faecalis [1]): 2 µg/mL (≈ 3.76 µM)
- MIC (Staphylococcus aureus [2]): 2 µg/mL (≈ 3.76 µM)
- MIC (Proteus mirabilis): 2 µg/mL (≈ 3.76 µM)
- MIC (Escherichia coli [3]): 2 µg/mL (≈ 3.76 µM)
- MIC (Pseudomonas aeruginosa [4]): 2 µg/mL (≈ 3.76 µM)
- MIC (Candida albicans): 2 µg/mL (≈ 3.76 µM)
- MIC (Aspergillus brasiliensis): 2 µg/mL (≈ 3.76 µM)

SMILES: Cc1ccc(OCc2cn(Cc3cccc(Cl)c3)nn2)c(-c2nn(-c3ccccc3)cc2C=O)c1
- MIC (Escherichia coli [5]): 5.5 µg/mL (≈ 11.4 µM)
- MIC (Klebsiella pneumoniae [6]): 5.5 µg/mL (≈ 11.4 µM)
- MIC (Pseudomonas aeruginosa [7]): 5.5 µg/mL (≈ 11.4 µM)
- MIC (Staphylococcus aureus [8]): 5.5 µg/mL (≈ 11.4 µM)
- MIC (Streptococcus pyogenes): 5.5 µg/mL (≈ 11.4 µM)

SMILES: CCCCCCCCn1nnc(-c2n[nH]c(=S)n2N)c1-c1n[nH]c(=S)n1N
- MIC (Bacillus cereus): 1 µg/mL (≈ 2.44 µM)
- MIC (Enterococcus faecalis [1]): 1 µg/mL (≈ 2.44 µM)
- MIC (Staphylococcus aureus [2]): 1 µg/mL (≈ 2.44 µM)
- MIC (Proteus mirabilis): 1 µg/mL (≈ 2.44 µM)
- MIC (Escherichia coli [3]): 1 µg/mL (≈ 2.44 µM)
- MIC (Pseudomonas aeruginosa [4]): 1 µg/mL (≈ 2.44 µM)
- MIC (Candida albicans): 1 µg/mL (≈ 2.44 µM)
- MIC (Aspergillus brasiliensis): 1 µg/mL (≈ 2.44 µM)

SMILES: O=C(O)c1ccc(-n2cc(COc3cccc4cccnc34)nn2)cc1
- IC50 (Salmonella enterica): 106 µg/mL (≈ 306 µM)
- IC50 (Pseudomonas aeruginosa [9]): 106 µg/mL (≈ 306 µM)
- IC50 (Enterococcus faecalis [10]): 106 µg/mL (≈ 306 µM)
- IC50 (Klebsiella pneumoniae [11]): 106 µg/mL (≈ 306 µM)
- IC50 (Escherichia coli [12]): 106 µg/mL (≈ 306 µM)

SMILES: OCCCSc1nnc(-c2nnn(-c3ccccc3Cl)c2-c2nnc(SCCCO)o2)o1
- MIC (Streptococcus pneumoniae): 4 µg/mL (≈ 8.06 µM)
- MIC (Bacillus subtilis): 4 µg/mL (≈ 8.06 µM)
- MIC (Staphylococcus aureus [13]): 4 µg/mL (≈ 8.06 µM)
- MIC (Pseudomonas aeruginosa [14]): 4 µg/mL (≈ 8.06 µM)
- MIC (Escherichia coli [15]): 4 µg/mL (≈ 8.06 µM)
- MIC (Klebsiella pneumoniae [16]): 4 µg/mL (≈ 8.06 µM)

SMILES: O=Cc1cn(-c2ccccc2)nc1-c1ccccc1OCc1cn(Cc2ccc(C(=O)O)cc2)nn1
- MIC (Escherichia coli [5]): 5.5 µg/mL (≈ 11.5 µM)
- MIC (Klebsiella pneumoniae [6]): 5.5 µg/mL (≈ 11.5 µM)
- MIC (Pseudomonas aeruginosa [7]): 5.5 µg/mL (≈ 11.5 µM)
- MIC (Staphylococcus aureus [8]): 5.5 µg/mL (≈ 11.5 µM)
- MIC (Streptococcus pyogenes): 5.5 µg/mL (≈ 11.5 µM)

SMILES: CC1CCN(c2c(F)c3c(c(=O)c(C(=O)O)cn3C3CC3)c3[nH]nnc23)CC1
- MIC (Pseudomonas aeruginosa [17]): 0.05 µg/mL (≈ 0.13 µM)
- MIC (Escherichia coli [18]): 0.05 µg/mL (≈ 0.13 µM)
- MIC (Staphylococcus aureus [19]): 0.05 µg/mL (≈ 0.13 µM)

SMILES: Cc1ccc(OCc2cn(Cc3ccccc3)nn2)c(-c2nn(-c3ccccc3)cc2C=O)c1
- MIC (Escherichia coli [5]): 5.5 µg/mL (≈ 12.2 µM)
- MIC (Klebsiella pneumoniae [6]): 5.5 µg/mL (≈ 12.2 µM)
- MIC (Pseudomonas aeruginosa [7]): 5.5 µg/mL (≈ 12.2 µM)
- MIC (Staphylococcus aureus [8]): 5.5 µg/mL (≈ 12.2 µM)
- MIC (Streptococcus pyogenes): 5.5 µg/mL (≈ 12.2 µM)

SMILES: CC(=O)OCC(CSc1nnc(-c2nnn(-c3ccccc3Cl)c2-c2nnc(SCC(COC(C)=O)OC(C)=O)o2)o1)OC(C)=O (configuration not stated)
- MIC (Streptococcus pneumoniae): 31.2 µg/mL (≈ 44.9 µM)
- MIC (Bacillus subtilis): 31.2 µg/mL (≈ 44.9 µM)
- MIC (Staphylococcus aureus [13]): 31.2 µg/mL (≈ 44.9 µM)
- MIC (Pseudomonas aeruginosa [14]): 31.2 µg/mL (≈ 44.9 µM)
- MIC (Escherichia coli [15]): 31.2 µg/mL (≈ 44.9 µM)
- MIC (Klebsiella pneumoniae [16]): 31.2 µg/mL (≈ 44.9 µM)

SMILES: O=Cc1cn(-c2ccccc2)nc1-c1cc(Cl)ccc1OCc1cn(Cc2ccccc2)nn1
- MIC (Escherichia coli [5]): 5.5 µg/mL (≈ 11.7 µM)
- MIC (Klebsiella pneumoniae [6]): 5.5 µg/mL (≈ 11.7 µM)
- MIC (Pseudomonas aeruginosa [7]): 5.5 µg/mL (≈ 11.7 µM)
- MIC (Staphylococcus aureus [8]): 5.5 µg/mL (≈ 11.7 µM)
- MIC (Streptococcus pyogenes): 5.5 µg/mL (≈ 11.7 µM)

SMILES: O=Cc1cn(-c2ccccc2)nc1-c1cc(Cl)ccc1OCc1cn(Cc2cccc(Cl)c2)nn1
- MIC (Escherichia coli [5]): 5.5 µg/mL (≈ 10.9 µM)
- MIC (Klebsiella pneumoniae [6]): 5.5 µg/mL (≈ 10.9 µM)
- MIC (Pseudomonas aeruginosa [7]): 5.5 µg/mL (≈ 10.9 µM)
- MIC (Staphylococcus aureus [8]): 5.5 µg/mL (≈ 10.9 µM)
- MIC (Streptococcus pyogenes): 5.5 µg/mL (≈ 10.9 µM)

SMILES: OCCSc1nnc(-c2nnn(-c3ccccc3Cl)c2-c2nnc(SCCO)o2)o1
- MIC (Streptococcus pneumoniae): 4 µg/mL (≈ 8.55 µM)
- MIC (Bacillus subtilis): 4 µg/mL (≈ 8.55 µM)
- MIC (Staphylococcus aureus [13]): 4 µg/mL (≈ 8.55 µM)
- MIC (Pseudomonas aeruginosa [14]): 4 µg/mL (≈ 8.55 µM)
- MIC (Escherichia coli [15]): 4 µg/mL (≈ 8.55 µM)
- MIC (Klebsiella pneumoniae [16]): 4 µg/mL (≈ 8.55 µM)

SMILES: O=Cc1cn(-c2ccccc2)nc1-c1ccccc1OCc1cn(Cc2cccc(Cl)c2)nn1
- MIC (Escherichia coli [5]): 5.5 µg/mL (≈ 11.7 µM)
- MIC (Klebsiella pneumoniae [6]): 5.5 µg/mL (≈ 11.7 µM)
- MIC (Pseudomonas aeruginosa [7]): 5.5 µg/mL (≈ 11.7 µM)
- MIC (Staphylococcus aureus [8]): 5.5 µg/mL (≈ 11.7 µM)
- MIC (Streptococcus pyogenes): 5.5 µg/mL (≈ 11.7 µM)

SMILES: CCOCCSc1nnc(-c2nnn(-c3ccccc3Cl)c2-c2nnc(SCCOCC)o2)o1
- MIC (Streptococcus pneumoniae): 31.2 µg/mL (≈ 59.6 µM)
- MIC (Bacillus subtilis): 31.2 µg/mL (≈ 59.6 µM)
- MIC (Staphylococcus aureus [13]): 31.2 µg/mL (≈ 59.6 µM)
- MIC (Pseudomonas aeruginosa [14]): 31.2 µg/mL (≈ 59.6 µM)
- MIC (Escherichia coli [15]): 31.2 µg/mL (≈ 59.6 µM)
- MIC (Klebsiella pneumoniae [16]): 31.2 µg/mL (≈ 59.6 µM)

SMILES: CC(=O)OCCSc1nnc(-c2nnn(-c3ccccc3Cl)c2-c2nnc(SCCOC(C)=O)o2)o1
- MIC (Streptococcus pneumoniae): 31.2 µg/mL (≈ 56.6 µM)
- MIC (Bacillus subtilis): 31.2 µg/mL (≈ 56.6 µM)
- MIC (Staphylococcus aureus [13]): 31.2 µg/mL (≈ 56.6 µM)
- MIC (Pseudomonas aeruginosa [14]): 31.2 µg/mL (≈ 56.6 µM)
- MIC (Escherichia coli [15]): 31.2 µg/mL (≈ 56.6 µM)
- MIC (Klebsiella pneumoniae [16]): 31.2 µg/mL (≈ 56.6 µM)

SMILES: CCCCCCCCCCn1nnc(-c2n[nH]c(=S)n2N)c1-c1n[nH]c(=S)n1N
- MIC (Bacillus cereus): 1 µg/mL (≈ 2.29 µM)
- MIC (Enterococcus faecalis [1]): 1 µg/mL (≈ 2.29 µM)
- MIC (Staphylococcus aureus [2]): 1 µg/mL (≈ 2.29 µM)
- MIC (Proteus mirabilis): 1 µg/mL (≈ 2.29 µM)
- MIC (Escherichia coli [3]): 1 µg/mL (≈ 2.29 µM)
- MIC (Pseudomonas aeruginosa [4]): 1 µg/mL (≈ 2.29 µM)
- MIC (Candida albicans): 1 µg/mL (≈ 2.29 µM)
- MIC (Aspergillus brasiliensis): 1 µg/mL (≈ 2.29 µM)

SMILES: COc1ccc(Cn2cc(COc3ccccc3-c3nn(-c4ccccc4)cc3C=O)nn2)cc1
- MIC (Escherichia coli [5]): 6.5 µg/mL (≈ 14 µM)
- MIC (Klebsiella pneumoniae [6]): 6.5 µg/mL (≈ 14 µM)
- MIC (Pseudomonas aeruginosa [7]): 6.5 µg/mL (≈ 14 µM)
- MIC (Staphylococcus aureus [8]): 6.5 µg/mL (≈ 14 µM)
- MIC (Streptococcus pyogenes): 6.5 µg/mL (≈ 14 µM)
